How the values were obtained:
Rac-1 [1] = target: T1, Rac-1 (Homo sapiens (Human), UniProt P63000); assay: Scintillation Proximity Assay (SPA), GTP affinity for binding domain
K-Ras (Q61H/G12D) [2] = target: T2, K-Ras (Q61H/G12D) (Homo sapiens (Human), UniProt P01116, G12D/Q61H); assay: as above
From the text: (§1) For the first time, the affinity of GTP for the GTP binding domain of K-Ras utilizing a Scintillation Proximity Assay (SPA) and MicroScale Thermophoresis (MST) has been measured and disclosed herein. These methods were not available when Wittinghofer and colleagues undertook their studies.
(§2) This therefore led to the novel, unanticipated conclusion that compounds such as small molecules could be discovered that would bind to a Ras GTP binding domain and compete with the binding of GTP to Ras.
(§3) See Khawaja et al., “Scintillation proximity assay in lead discovery”, Expert Opin. Drug Discov., 2008 November; 3(11):1267-80 regarding SPA procedures. See the following references regarding MST technology: Wienken et al., Nature Communications (2010), Protein binding assays in biological liquids using MicroScale Thermophoresis; Jerabek-Willemsen et al., ASSAY and Drug Development Technologies (2011), Molecular interaction studies using MicroScale Thermophoresis; Lin et al., Cell (2012), Inhibition of basal FGF receptor signaling by dimeric Grb2; Seidel et al., Angewandte Chemie (2012), Label-Free MicroScale Thermophoresis discriminates sites and affinity of protein-ligand binding; Seidel et al., Methods (2012), MicroScale Thermophoresis quantifies biomolecular interactions under previously challenging conditions; Parker & Newstead, Nature (2014), Molecular basis of nitrate uptake by the plant nitrate transporter NRT1.1; and Jerabek-Willemsen et al., Journal of Molecular Structure (2014), MicroScale Thermophoresis: Interaction analysis and beyond.

KRas wild type [3] = target: T3, KRas wild type (Homo sapiens (Human), UniProt P01116); assay: as above
T3 sequence (P01116-2 other isoform, or with tags, fused parts or gaps): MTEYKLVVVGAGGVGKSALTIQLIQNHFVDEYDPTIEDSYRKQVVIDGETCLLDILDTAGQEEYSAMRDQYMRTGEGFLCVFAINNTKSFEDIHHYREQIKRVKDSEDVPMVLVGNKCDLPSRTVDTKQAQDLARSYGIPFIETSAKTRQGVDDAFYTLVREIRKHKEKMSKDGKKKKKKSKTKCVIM
From the text: as §1, §2, §3

K-Ras (G12C) [4] = target: T4, K-Ras (G12C) (Homo sapiens (Human), UniProt P01116, G12C); assay: as above
T4 sequence (P01116-2 other isoform, or with tags, fused parts or gaps G12C): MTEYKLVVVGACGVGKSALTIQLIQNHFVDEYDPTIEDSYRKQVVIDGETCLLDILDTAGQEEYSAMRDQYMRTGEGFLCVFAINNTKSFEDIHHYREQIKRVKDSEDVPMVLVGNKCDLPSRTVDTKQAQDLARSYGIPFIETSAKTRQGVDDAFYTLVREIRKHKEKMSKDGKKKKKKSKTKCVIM
From the text: as §1, §2, §3

K-Ras (Q61H) [5] = target: T5, K-Ras (Q61H) (Homo sapiens (Human), UniProt P01116, Q61H); assay: as above
T5 sequence (P01116-2 other isoform, or with tags, fused parts or gaps Q61H): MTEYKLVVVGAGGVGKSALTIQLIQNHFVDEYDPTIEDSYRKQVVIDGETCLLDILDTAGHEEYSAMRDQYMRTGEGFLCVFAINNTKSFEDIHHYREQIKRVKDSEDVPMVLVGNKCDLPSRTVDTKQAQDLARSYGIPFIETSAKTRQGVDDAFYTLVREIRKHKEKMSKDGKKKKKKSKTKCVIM
From the text: as §1, §2, §3

K-Ras (G12D) [6] = target: T6, K-Ras (G12D) (Homo sapiens (Human), UniProt P01116, G12D); assay: as above
T6 sequence (P01116-2 other isoform, or with tags, fused parts or gaps G12D): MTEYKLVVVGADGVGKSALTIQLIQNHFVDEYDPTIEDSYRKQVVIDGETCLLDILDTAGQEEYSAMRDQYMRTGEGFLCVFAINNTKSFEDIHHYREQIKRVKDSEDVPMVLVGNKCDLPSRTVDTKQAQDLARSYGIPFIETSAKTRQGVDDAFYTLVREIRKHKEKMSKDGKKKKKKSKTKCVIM
From the text: as §1, §2, §3

K-Ras (Q61H/G12C) [7] = target: T7, K-Ras (Q61H/G12C) (Homo sapiens (Human), UniProt P01116, G12C/Q61H); assay: as above
T7 sequence (P01116-2 other isoform, or with tags, fused parts or gaps G12C/Q61H): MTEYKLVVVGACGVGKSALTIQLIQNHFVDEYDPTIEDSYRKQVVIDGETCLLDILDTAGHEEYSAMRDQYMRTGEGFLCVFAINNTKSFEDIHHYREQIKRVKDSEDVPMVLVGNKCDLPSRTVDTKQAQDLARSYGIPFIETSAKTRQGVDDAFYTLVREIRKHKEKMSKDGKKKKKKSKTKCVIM
From the text: as §1, §2, §3

[8] = target: GTP binding domain of Ras; details: literature, kinetic and filter binding measurements with radiolabeled GDP and GTP; cited from earlier work
Rho-A [9] = target: T8, Rho-A (Homo sapiens (Human), UniProt P61586); assay: MicroScale Thermophoresis (MST), GTP affinity for binding domain
T8 sequence (P61586 whole entry, the tested form may be a part): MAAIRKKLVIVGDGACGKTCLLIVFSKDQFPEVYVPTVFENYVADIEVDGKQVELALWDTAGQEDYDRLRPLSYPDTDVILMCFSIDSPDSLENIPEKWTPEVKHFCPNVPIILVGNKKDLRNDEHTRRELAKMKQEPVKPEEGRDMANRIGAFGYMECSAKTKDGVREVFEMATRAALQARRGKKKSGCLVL

Rho-A [10] = target: T8, Rho-A; assay: Scintillation Proximity Assay (SPA), GTP affinity for binding domain
[11] = target: Rac-1 and Rho-A members of the Rho subfamily; assay: SPA and MST studies, summary range for Rho subfamily members; details: read-out: affinity of GTP for the binding domain of Rho subfamily members
From the text: as §2, §3

Rac-1 [12] = target: T1, Rac-1; assay: MicroScale Thermophoresis (MST), GTP affinity for binding domain
[13] = target: K-Ras GTP binding domain across wild type and mutant K-Ras; assay: SPA and MST studies, summary range across K-Ras forms; details: read-out: affinity of GTP for the K-Ras GTP binding domain
From the text: as §1, with “colleagues (referenced above)” for “colleagues”
as §2, §1
See Khawaja et al., “Scintillation proximity assay in lead discovery”, Expert Opin. Drug Discov., 2008 November; 3(11):1267-80 regarding SPA procedures. […]

K-Ras (Q61H/G12D) [14] = target: T2, K-Ras (Q61H/G12D); assay: MicroScale Thermophoresis (MST), GTP affinity for binding domain
From the text: as §1, §2, §3

KRas wild type [15] = target: T3, KRas wild type; assay: as above
From the text: as §1, §2, §3

K-Ras (G12C) [16] = target: T4, K-Ras (G12C); assay: as above
From the text: as §1, §2, §3

K-Ras (Q61H) [17] = target: T5, K-Ras (Q61H); assay: as above
From the text: as §1, §2, §3

K-Ras (G12D) [18] = target: T6, K-Ras (G12D); assay: as above
From the text: as §1, §2, §3

K-Ras (Q61H/G12C) [19] = target: T7, K-Ras (Q61H/G12C); assay: as above
From the text: as §1, §2, §3

T2 sequence (P01116-2 other isoform, or with tags, fused parts or gaps G12D/Q61H): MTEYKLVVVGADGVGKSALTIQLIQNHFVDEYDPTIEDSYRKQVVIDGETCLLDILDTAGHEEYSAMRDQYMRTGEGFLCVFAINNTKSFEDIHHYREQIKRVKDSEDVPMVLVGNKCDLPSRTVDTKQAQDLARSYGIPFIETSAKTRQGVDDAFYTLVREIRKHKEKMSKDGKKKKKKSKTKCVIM

Nc1nc2c(ncn2[C@@H]2O[C@H](COP(=O)(O)OP(=O)(O)OP(=O)(O)O)[C@@H](O)[C@H]2O)c(=O)[nH]1 [GTP]
Kd (Rac-1 [1]): 151 ± 14 nM | Kd (K-Ras (Q61H/G12D) [2]): 135 ± 19 nM | Kd (KRas wild type [3]): 243 ± 15 nM | Kd (K-Ras (G12C) [4]): 258 ± 18 nM | Kd (K-Ras (Q61H) [5]): 118 ± 11 nM | Kd (K-Ras (G12D) [6]): 270 ± 15 nM | Kd (K-Ras (Q61H/G12C) [7]): 104 ± 11 nM | affinity for the GTP binding domain of Ras [8]: single to double digit picomolar | Kd (Rho-A [9]): 130 ± 5 nM | Kd (Rho-A [10]): 129 ± 12 nM | Kd [11]: 120 to 170 nM | Kd (Rac-1 [12]): 166 ± 10 nM | Kd [13]: 100 to 465 nM | Kd (K-Ras (Q61H/G12D) [14]): 268 ± 108 nM | Kd (KRas wild type [15]): 463 ± 2 nM | Kd (K-Ras (G12C) [16]): 207 ± 46 nM | Kd (K-Ras (Q61H) [17]): 157 ± 21 nM | Kd (K-Ras (G12D) [18]): 244 ± 12 nM | Kd (K-Ras (Q61H/G12C) [19]): 266 ± 57 nM
